How the values were obtained:
human SGLT1 = target: T1, human SGLT1 (Homo sapiens, UniProt P13866); test: Assay for inhibitory effects on human SGLT1 activity (uptake of methyl-α-D-glucopyranoside in CS1-5-11D cells); type: cell-based; conditions: CHO-K1 cells stably expressing human SGLT1 (CS1-5-11D); 1 mM α-MG uptake, 37° C., 1 hour
T1 construct: expressed in transfected cells
T1 sequence (P13866 1-664): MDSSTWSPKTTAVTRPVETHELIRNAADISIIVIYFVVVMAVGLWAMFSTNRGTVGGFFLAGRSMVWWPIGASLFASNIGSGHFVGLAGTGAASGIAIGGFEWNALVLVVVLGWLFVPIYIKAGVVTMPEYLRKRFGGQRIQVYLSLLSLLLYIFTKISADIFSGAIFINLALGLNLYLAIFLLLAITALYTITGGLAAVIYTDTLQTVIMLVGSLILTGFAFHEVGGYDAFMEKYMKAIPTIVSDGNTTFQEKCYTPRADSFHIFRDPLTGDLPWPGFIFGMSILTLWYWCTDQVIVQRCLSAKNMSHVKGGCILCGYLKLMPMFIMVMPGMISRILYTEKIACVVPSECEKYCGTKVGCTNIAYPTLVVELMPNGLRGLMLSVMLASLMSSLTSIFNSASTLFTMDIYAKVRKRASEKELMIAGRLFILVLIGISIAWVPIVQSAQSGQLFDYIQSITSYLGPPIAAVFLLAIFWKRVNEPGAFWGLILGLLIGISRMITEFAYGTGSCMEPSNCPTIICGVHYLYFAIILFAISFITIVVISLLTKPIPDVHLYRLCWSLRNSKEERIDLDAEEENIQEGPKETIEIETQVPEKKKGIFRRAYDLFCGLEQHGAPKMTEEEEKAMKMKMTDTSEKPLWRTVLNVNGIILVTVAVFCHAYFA
Experimental: Assay for Inhibitory Effects on Human SGLT1 Activity
1) Cloning and Construction of the Vector Expressing Human SGLT1
The cDNA library was prepared for PCR amplification by reverse transcription from total RNA deprived from human small intestine (Ori gene) using oligo-dT as a primer. Using this cDNA library as a template, the DNA fragment coding 1 to 2005 bp of human SGLT1 (ACCESSION: M24847), which was reported by Hediger et al., was amplified by PCR method and inserted into the multi-cloning site of pcDNA3.1(−) (Invitrogen). The DNA sequence inserted was perfectly matched to the previously reported sequence.
2) Establishment of Cell Line Stably Expressing Human SGLT1
The expression vector of human SGLT1 was digested by Sca I into a linear DNA. The linear DNA was transfected into CHO-K1 cells by means of lipofection (Effectene Transfection Reagent: QIAGEN). Neomycin resistant cell lines were selected by culture in the medium containing G418 (1 mg/mL, LIFE TECHNOLOGIES), and then the activity against the uptake of methyl-α-D-gluco-pyranoside was measured by the method described below. […] CS1-5-11D cells were cultured in the presence of G418 at 200 μg/mL.
3) Measurement of the Inhibitory Activity Against the Uptake of methyl-α-D-glucopyranoside (α-MG)
CS1-5-11D cells were seeded into a 96-well culture plate at a density of 3×10^4 cells/well and cultured for 2 days, and were used in the uptake assay. A mixture of non-labeled (Sigma) and ^14C-labeled α-MG (Amersham Pharmcia Biotec) was added to the uptake buffer (pH 7.4; containing 140 mM sodium chloride, 2 mM potassium chloride, 1 mM calcium chloride, 1 mM magnesium chloride, 10 mM 2-[4-(2-hydroxyethyl)-1-piperazinyl]ethane sulfonic acid, and 5 mM tris(hydroxymethyl)aminomethane) at the final concentration of 1 mM. A test compound was dissolved in dimethyl sulfoxide, and then appropriately diluted with distilled water. The test compound solution was added to the uptake buffer containing 1 mM α-MG, and designated as a measurement buffer. For the control group, the measurement buffer without any test compound was prepared. For measuring the basal uptake, a basal uptake measurement buffer which contains 140 mM chorine chloride instead of sodium chloride was prepared. After removing the culture medium of CS1-5-11D cells, 180 μL of the pre-treatment buffer (the basal uptake buffer without α-MG) was added to each well and incubated at 37° C. for 10 minutes. After repeating the same treatment, the pre-treatment buffer was removed. To each well was added 75 μL of the measurement buffer or the basal uptake buffer was added and incubated at 37° C. for 1 hour. After removing the measurement buffer, cells were washed twice with 180 μL per well of the washing buffer (the basal uptake buffer containing 10 mM non-labeled α-MG). The cells were solubilized by 75 μL per well of 0.2 mol/L sodium hydroxide. The cell lysates were transferred into PicoPlates (Packard), and then added 150 μL of MicroScint-40 (Packard) and mixed. Radioactivity was measured by means of micro-scintillation counter TopCount (Packard). One hundred % was set to the difference between the uptake in the control group and the basal uptake, and the uptake of methyl α-D-gluco-pyranoside at each drug concentration were calculated.

diabetic rats = test: Assay for inhibitory effects on blood glucose level increase in rats (liquid meal tolerance test in diabetic rat model); type: in vivo; conditions: test compound 1 mg/kg orally, liquid meal 17.25 kcal/kg, mean ± S.E.; for Plasma glucose concentration 0.5 h: 0.5 hour after drug administration; for Plasma glucose concentration 1 h: 1 hour after drug administration; for Plasma glucose concentration 0 h: pretreatment (0 h)
Experimental: Assay for Inhibitory Effects on Blood Glucose Level Increase in rats
1) Preparation of Diabetic Rat Model
Male wistar rats (Japan Charles River), aged 8 weeks old, were injected nicotinamide (230 mg/kg) intraperitoneally. Fifteen minutes after injection, they were injected streptozotocin (85 mg/kg) intravenously from tail vain under anesthesia with ether. After a week, rats were fasted overnight and then glucose tolerance test (2 g/kg) was done.
2) Liquid Meal Tolerance Test
After overnight fasted, the diabetic rats were orally administered a test compound (1 mg/kg), which was dissolved in distilled water, in the drug-treating group, or distilled water alone in a control group. Immediately after the compound administration, 17.25 kcal/kg of liquid meal (No. 038, Control diet, assorted with dextrin and maltose; Oriental Yeast Co., Ltd.) was loaded orally. The blood was collected from tail artery immediately before and after administration with the time course, and treated with heparin immediately. The blood was centrifuged, and the plasma was collected to quantify the plasma glucose concentration by glucose oxidase method. The values in the table are presented as the mean ±S.E.

| Compound | IC50 (human SGLT1) [nM] | Plasma glucose concentration 0.5 h (diabetic rats) [mg/dL] | Plasma glucose concentration 1 h (diabetic rats) [mg/dL] | Plasma glucose concentration 0 h (diabetic rats) [mg/dL] |
| --- | --- | --- | --- | --- |
| CC(C)c1[nH]nc(O[C@@H]2O[C@H](CO)[C@@H](O)[C@H](O)[C@H]2O)c1Cc1ccc(/C=C/C(=O)NC(CO)(CO)CO)cc1 [Example 28, 3-(β-D-Glucopyranosyloxy)-4-[(4-{(1E)-2-[2-hydroxy-1,1-bis-(hydroxymethyl)ethylcarbamoyl]vinyl}phenyl)methyl]-5-isopropyl-1H-pyrazole] | 267 |  |  |  |
| CC(C)c1[nH]nc(O[C@@H]2O[C@H](CO)[C@@H](O)[C@H](O)[C@H]2O)c1Cc1ccc(CCCS(=O)(=O)NCCN)cc1 [Example 34, 4-({4-[3-(2-Aminoethylsulfamoyl)propyl]phenyl}methyl)-3-(β-D-glucopyranosyloxy)-5-isopropyl-1H-pyrazole] | 245 |  |  |  |
| CC(C)c1[nH]nc(O[C@@H]2O[C@H](CO)[C@@H](O)[C@H](O)[C@H]2O)c1Cc1ccc(CCCS(=O)(=O)NC(C)(C)C(N)=O)cc1 [Example 35, 4-[(4-{3-[1-Carbamoyl-1-(methyl)ethylsulfamoyl]propyl}-phenyl)methyl]-3-(β-D-glucopyranosyloxy)-5-isopropyl-1H-pyrazole] | 115 |  |  |  |
| CC(C)c1[nH]nc(O[C@@H]2O[C@H](CO)[C@H](O)[C@H](O)[C@H]2O)c1Cc1ccc(CCCC(=O)NC(C)(C)C(=O)N2CCN(CCO)CC2)cc1 [Example 48, 3-(β-D-Galactopyranosyloxy)-4-[(4-{3-[1-{[4-(2-hydroxy-ethyl)piperazin-1-yl]carbonyl}-1-(methyl)ethylcarbamoyl]-propyl}phenyl)methyl]-5-isopropyl-1H-pyrazole] | 31 | 139 ± 4 | 132 ± 4 | 112 ± 5 |
| CC(C)c1[nH]nc(O[C@@H]2O[C@H](CO)[C@@H](O)[C@H](O)[C@H]2O)c1Cc1ccc(CCCC(=O)NC(C)(C)C(N)=O)cc1 [Example 24, 4-[(4-{3-[1-Carbamoyl-1-(methyl)ethylcarbamoyl]propyl}-phenyl)methyl]-3-(β-D-glucopyranosyloxy)-5-isopropyl-1H-pyrazole] | 24 |  |  |  |
| CC(C)c1[nH]nc(O[C@@H]2O[C@H](CO)[C@H](O)[C@H](O)[C@H]2O)c1Cc1ccc(CCCC(=O)NC(C)(C)C(N)=O)cc1 [Example 33, 4-[(4-{3-[1-Carbamoyl-1-(methyl)ethylcarbamoyl]propyl}-phenyl)methyl]-3-(β-D-galactopyranosyloxy)-5-isopropyl-1H-pyrazole] | 174 | 207 ± 8 | 251 ± 21 | 127 ± 11 |
| CC(C)c1[nH]nc(O[C@@H]2O[C@H](CO)[C@@H](O)[C@H](O)[C@H]2O)c1Cc1ccc(CCCC(=O)NC(CO)(CO)CO)cc1 [Example 21, 3-(β-D-Glucopyranosyloxy)-4-[(4-{3-[2-hydroxy-1,1-bis-(hydroxymethyl)ethylcarbamoyl]propyl}phenyl)methyl]-5-isopropyl-1H-pyrazole] | 12 | 156 ± 15 | 178 ± 19 | 118 ± 9 |
| CC(C)c1[nH]nc(O[C@@H]2O[C@H](CO)[C@H](O)[C@H](O)[C@H]2O)c1Cc1ccc(CCCC(=O)NC(C)(C)C(=O)N2CCN(C)CC2)cc1 [Example 61, 3-(β-D-Galactopyranosyloxy)-5-isopropyl-4-{[4-(3-{1-[(4-methylpiperazin-1-yl)carbonyl]-1-(methyl)ethylcarbamoyl}-propyl)phenyl]methyl}-1H-pyrazole] | 18 | 136 ± 6 | 172 ± 37 | 116 ± 6 |
| 3-(β-D-Glucopyranosyloxy)-4-({4-[3-(2-hydroxyethyl)-carbamoylpropyl]phenyl}methyl)-5-isopropyl-1H-pyrazole [Example 18] | 181 |  |  |  |
| CC(C)c1[nH]nc(O[C@@H]2O[C@H](CO)[C@H](O)[C@H](O)[C@H]2O)c1Cc1ccc(CCCC(=O)NC(C)(C)C(=O)N2CCNCC2)cc1 [Example 57, 3-(β-D-Galactopyranosyloxy)-5-isopropyl-4-{[4-(3-{1-[(piperazin-1-yl)carbonyl]-1-(methyl)ethylcarbamoyl}-propyl)phenyl]methyl}-1H-pyrazole] | 39 |  |  |  |
| CC(C)c1[nH]nc(O[C@@H]2O[C@H](CO)[C@@H](O)[C@H](O)[C@H]2O)c1Cc1ccc(CCCC(=O)NCCCN(CCO)CCO)cc1 [Example 15, 3-(β-D-Glucopyranosyloxy)-5-isopropyl-4-{[4-(3-{3-[bis(2-hydroxyethyl)amino]propylcarbamoyl}propyl)phenyl]methyl}-1H-pyrazole] | 113 |  |  |  |
| CC(C)c1[nH]nc(O[C@@H]2O[C@H](CO)[C@@H](O)[C@H](O)[C@H]2O)c1Cc1ccc(/C=C/C(=O)NC(C)(CO)CO)cc1 [Example 27, 3-(β-D-Glucopyranosyloxy)-4-[(4-{(1E)-2-[2-hydroxy-1-hydroxymethyl-1-(methyl)ethylcarbamoyl]vinyl}phenyl)-methyl]-5-isopropyl-1H-pyrazole] | 237 |  |  |  |
| CC(C)c1[nH]nc(O[C@@H]2O[C@H](CO)[C@@H](O)[C@H](O)[C@H]2O)c1Cc1ccc(CCCC(=O)NC(C)(C)C(=O)NCC(N)=O)cc1 [Example 31, 4-[(4-{3-[1-Carbamoylmethylcarbamoyl-1-(methyl)ethyl-carbamoyl]propyl}phenyl)methyl]-3-(β-D-glucopyranosyloxy)-5-isopropyl-1H-pyrazole] | 96 |  |  |  |
| CC(C)c1[nH]nc(O[C@@H]2O[C@H](CO)[C@@H](O)[C@H](O)[C@H]2O)c1Cc1ccc(/C=C/C(=O)NC(C)(C)C(N)=O)cc1 [Example 29, 4-[(4-{(1E)-2-[1-Carbamoyl-1-(methyl)ethylcarbamoyl]vinyl}-phenyl)methyl]-3-(β-D-glucopyranosyloxy)-5-isopropyl-1H-pyrazole] | 431 |  |  |  |

— patent US7655632B2, “Pyrazole derivative, medicinal composition containing the same, medicinal use thereof, and intermediate for production thereof” (Kissei Pharmaceutical Co., Ltd., priority 2002, dated 2010)
